The results in this text go back to patent US20100069316A1, “TREATMENT FOR MULTIPLE MYELOMA” (Ares Trading S.A., priority 2006, published 2010).

Molecules are shown by their SMILES. Like-named read-outs stand apart in the source and are kept apart here.

In general, IC50 refers to the midpoint of a concentration-inhibition curve. A word on the IC10: it is the concentration at which the effect reaches the 10% level.

What all share (type): cell-based, human
One test has as its system XG3 myeloma cell line. The test is described as follows: Cell proliferation assay (tritiated thymidine incorporation), XG3. The following applies: for IC50: Homo sapiens; for IC10: XG3, concentration yielding 10% inhibition of proliferation. As for the experimental part:
(§1) Myeloma cells were harvested in the exponential growth phase (at day 3 after culture passage when the cell concentration is around 5×10^5 cells/ml). Cells were washed twice, cultured for 3 hours in RPMI1640 and 10% FCS, washed twice. This makes it possible to remove cell-bound growth factors (in particular recombinant IL-6). Then cells are plated in 96-well flat-bottomed microplates at various concentrations depending on their doubling time: • 5×10^3 cells/well in 100 μl for the cell lines: XG-1, XG-7 • 10^4 cells/well in […] for the cell lines: XG-2, XG-4, XG-6, XG-11, PRMI8226, L363 • 2×10^4 cells/well in 100 μl for the cell lines: XG-3, XG-12, XG-13, XG-14, XG-19, XG-20
(§2) The culture medium used were: • PRMI1640, 10% FCS and 0.5 ng/ml of IL-6 for XG-1, XG-2, XG-3, XG-4, XG-6, XG-7, XG-11, XG-12, XG-13, XG-19, XG-20 cells • X-VIVO20 and 0.5 ng/ml IL-6 for XG-14 cells • PRMI1640 and 10% FCS for RPMI8226 and L363 cells
(§3) The diluted compounds, DMSO or control culture medium were added in 100 μl at the start of the culture. Three culture wells were done for one compound dilution and the experiments were done twice (finally six culture wells for one compound dilution).
(§4) Cells were cultured for 4 days. Eight hours before the end of the culture, 0.5 μCi of tritiated thymidine were added in 50 μl of RPMI1640 and 10% FCS. Cells were then extracted with a cell collector and the thymidine incorporation was determined using a beta cell counter.
(§5) For each experiment, the mean tritiated thymidine incorporations (mean values determined on three culture wells) were plotted against the logarithmic concentrations of the compound. The curves were fitted with exponential regression, which was determined using the concentrations defining the inhibition response (usually 3-4 concentrations).
(§6) The concentrations yielding 50% and 90% inhibition of the proliferation of myeloma cells were determined with these regression curves.
(§7) The concentration yielding 10% (IC10) or 50% (IC50) inhibition of the myeloma cell lines were determined and the data are listed in Table 2.
(§8) Compound A was tested in combination with melphalan or Velcade. Increasing concentration of compound A (0, 0.01, 0.03, 0.12, 0.37, 1.1, 3.1, 10, 30 μM) were applied on 4 myeloma cell lines alone or in combination with Velcade or melphalan at concentration yielding around 10% or 50% inhibition.
On the technique in general: Incorporation of labelled thymidine or its analogues reports DNA synthesis.

Another test concerns XG7 myeloma cell line. The test is described as follows: Cell proliferation assay (tritiated thymidine incorporation), XG7. Conditions: for IC50: Homo sapiens; for IC10: XG7, concentration yielding 10% inhibition of proliferation. As for the experimental part: as §1, §2, §3, §4, §5, §6, §7, §8
The test system of the next test is L363 myeloma cell line. Nature of the test: Cell proliferation assay (tritiated thymidine incorporation), L363. Conditions: for IC50: Homo sapiens; for IC10: L363, concentration yielding 10% inhibition of proliferation. How it is done:
as §1, §2, §3, §4, §5, §6, §7, §8

A further test has as its system XG12 myeloma cell line. Nature of the test: Cell proliferation assay (tritiated thymidine incorporation), XG12. Conditions: for IC50: Homo sapiens; for IC10: XG12, concentration yielding 10% inhibition of proliferation. How it is done: as §1, §2, §3, §4, §5, §6, §7, §8

Take `N[C@@H](Cc1ccc(N(CCCl)CCCl)cc1)C(=O)O` [Melphalan, melphalan]: the IC50 came to 1680 nM in the test on XG3 myeloma cell line, 1180 nM with XG7 myeloma cell line, 457 nM in the test on L363 myeloma cell line (L-363) and 1230 nM in the test with XG12 myeloma cell line. Further, the “IC10” value was found to be 0.490 µM in the test with XG3 myeloma cell line, 0.409 µM with XG7 myeloma cell line, 0.110 µM in the test on L363 myeloma cell line and 0.318 µM with XG12 myeloma cell line.
On to `CC(C)C[C@H](NC(=O)[C@H](Cc1ccccc1)NC(=O)c1cnccn1)B(O)O` [Velcade, bortezomib], for which the IC50 amounted to 2.2 nM in the test with XG3 myeloma cell line (XG3, proliferation, read-out: IC50); 3.5 nM with XG7 myeloma cell line (XG7, proliferation, read-out: IC50); 8.4 nM with L363 myeloma cell line (L-363, L363, proliferation, read-out: IC50); 3.9 nM with XG12 myeloma cell line (XG12, proliferation, read-out: IC50). For the same compound, the “IC10” value worked out at 0.0016 µM with XG3 myeloma cell line, 0.0014 µM in the test on XG7 myeloma cell line, 0.0049 µM with L363 myeloma cell line and 0.0016 µM in the test on XG12 myeloma cell line.
